Results on two compounds are retold here after patent US10654890B2, “Cyclic peptide derivative, method for preparing same and composition thereof” (priority 2014, dated 2020).

Series [1] deals with senescence-accelerated model mouse SAMP8. In words: Step through passive avoidance test. It counts as in vivo. The source says:
As a mouse for an in vivo test of the cyclic peptide derivative, senescence-accelerated model mouse SAMP8 which is used as a cognitive disorder model animal of initial Alzheimer's disease accompanied with aging was selected, and as a control, SAMR1 mouse with normal aging was selected.
19-Week old male mice of SAMR1 and SAMP8 were purchased from Japan SLC, Inc., and divided into 5 groups, i.e., mouse group with normal aging (SAMR1), senescence-accelerated model mouse group (SAMP8), {P8+donepezil hydrochloride 1250 μg/kg/day} group as a positive control, and {P8+cyclic peptide derivative 2.5 μg/kg/day} group and {P8+cyclic peptide derivative 25 μg/kg/day} group as a test group. The animal was individually kept, i.e., one animal per cage, in a room with controlled environment {room temperature: 23±2° C., light and dark cycle: lighting time of 12 hours (time with light: 07:00 to 19:00), time without light: 12 hours}. The test was carried out in a time window of from 13:00 to 18:00 in an incubator with constant temperature and constant humidity (temperature 23±2° C., humidity 50±10%). After 10 days of an acclimation period, all mice were provided with standard meal (MEQ, Oriental Yeast Company) and body weight of the animal was recorded everyday during the entire test period. […]
(3) {P8+donepezil hydrochloride 1250 μg/kg/day} group: As a positive control, donepezil hydrochloride (Sanyo Chemical Laboratories CO., LTD.) was dissolved in MQ and prepared to have a concentration of 1250 μg/kg (bodyweight), and then orally administered to a SAMP8 for 5 weeks by using a gastric sonde. The concentration was accurately calculated based on the bodyweight which has been measured every day. […]
(4) {P8+cyclic peptide derivative 2.5 μg/kg/day} group: As a test group, the cyclic peptide derivative was dissolved in MQ and prepared to have a concentration of 2.5 μg/kg (bodyweight), and then orally administered to a SAMP8 for 5 weeks by using a gastric sonde. The concentration was accurately calculated based on the bodyweight which has been measured every day. […]

The subject of series [2] is normal human dermal fibroblasts (NHDF). The series can be described thus: Cell proliferation test, normal human dermal fibroblasts. It counts as cell-based. On the procedure: (§1) To see whether or not the astrocyte proliferation accelerating activity of the cyclic peptide derivative is a specific proliferative activity that is limited only to an astrocyte or it is based on a common cell proliferative activity, investigations were made by using normal human dermal fibroblasts (NHDF), human liver cancer cells (HepG2), and human leukemia cells (K562).
(§2) Seeding of each cell on a 96 well plate was carried out by adding 100 μl of a cell suspension in which normal human dermal fibroblasts are prepared at 2.5×10^4 cells/ml or human liver cancer cells and human leukemia cells are prepared at 5×10^4 cells/ml. Since the cyclic peptide derivative is added after dissolving it in PBS (−), only PBS (−) was added as a control.

Series [3] relates to human leukemia cells (K562). In words: Cell proliferation test, human leukemia cells. It counts as cell-based. To be noted: 2.5 μM and 25 μM, FIG. 10. The method, then:
as §1, §2

The test system of series [4] is senescence-accelerated model mouse SAMP8. The series can be described thus: Damaged area ratio of body hair surface by scanning probe microscope. The series is classed as in vivo. An excerpt:
As for the apparatus, tapping mode scanning probe microscope (SPM: SPA400, Hitachi High-Tech Science Corporation) was used.
As a sample, body hair in head and neck part of a mouse was collected by plucking from the origin, and the observation was made by using the tapping mode scanning probe microscope described above.

Where a name gives a salt, the structure may show the parent alone.

`COc1cc2c(cc1OC)C(=O)C(CC1CCN(Cc3ccccc3)CC1)C2` (stereo not drawn) [donepezil hydrochloride, reference compound]: the “latency in post-shock trial” value in series [1] (SAMP8, oral 1250 μg/kg/day, compared to SAMP8 not administered with anything, p<0.05) is “short latency in significant sense”.
For `CCC1(C)Oc2cc(ccc2O)C(O)C(NC)C(=O)NC(C(C)C)C(=O)NC1C(=O)NC(CCC(=O)O)C(=O)O` (stereo not drawn) [cyclic peptide derivative], the “cytotoxicity for normal cells” value in series [2] is recorded as “low”. The compound also displayed a cell proliferation rate in series [2] (25 μM) of about 80%. Moreover, the “proliferation of NHDF cells compared to the group with no addition” value in series [2] (25 μM) is “inhibited in a significant sense”. The “contextual learning ability (latency in post-shock trial)” value in series [1] (SAMP8, oral 2.5 μg/kg/day) was “recovered to the level of a mouse with normal aging”; in series [1] (SAMP8, oral 25 μg/kg/day), “recovered to the level of a mouse with normal aging”. Also, the “inhibitory activity on cell proliferation” value in series [3] was “a strong inhibitory activity on cell proliferation was observed”. Moreover, the “damage ratio on a surface of mouse body hair” value in series [4] (SAMP8, oral 2.5 μg/kg/day) is “lowered to the same level as those of a mouse with normal aging”; in series [4] (SAMP8, oral 25 μg/kg/day), “lowered to the same level as those of a mouse with normal aging”.
